In ChEMBL document CHEMBL3046888, “Antiviral and Antifungal Activities of Some Naphthoquinones Isolated from the Roots of Lithospermum erythrorhizon” (J Pestic Sci, 1998):
Active and inactive are the calls of the source. The calls are words filed in the database; no cut-off is given here.

Legend:
Cladosporium herbarum [1] = test: Antifungal activity against Cladosporium herbarum assessed as inhibition at 50 nmol in 8 mm disk; assay type: functional
Cladosporium herbarum [2] = test: Antifungal activity against Cladosporium herbarum assessed as inhibition at 1250 nmol in 8 mm disk; assay type: functional
Tobacco mosaic virus [3] = test: Antiviral activity against Tobacco mosaic virus (TMV) in compound treated tobacco leaf assessed as growth inhibition at 5 mM at 25 degC for 3 days (16 hr in light) by half-leaf method; assay type: functional
Tobacco mosaic virus [4] = test: Antiviral activity against Tobacco mosaic virus (TMV) in compound treated tobacco leaf assessed as growth inhibition at 25 mM at 25 degC for 3 days (16 hr in light) by half-leaf method; assay type: functional; parameters: dose or concentration left out as unconfirmed
Cladosporium herbarum [5] = test: Antifungal activity against Cladosporium herbarum assessed as inhibition at 10 nmol in 8 mm disk; assay type: functional
Cladosporium herbarum [6] = test: Antifungal activity against Cladosporium herbarum assessed as inhibition at 250 nmol in 8 mm disk; assay type: functional
Nicotiana tabacum = test: Phytotoxicity against Nicotiana tabacum (tobacco) plant at 25 mM; assay type: organism-based; conditions: in vivo, 25000 µM

Compound: CC(=O)O[C@H](CC=C(C)C)C1=CC(=O)c2c(O)ccc(O)c2C1=O [ACETYLSHIKONIN]
- diameter of the inhibition zone (DIZ) (Cladosporium herbarum [1]): 13 mm
- diameter of the inhibition zone (DIZ) (Cladosporium herbarum [2]): 13.4 mm
- inhibition at 5000 µM (Tobacco mosaic virus [3]): 73.2%
- inhibition (Tobacco mosaic virus [4]): 78.7%
- diameter of the inhibition zone (DIZ) (Cladosporium herbarum [5]): 10.1 mm
- diameter of the inhibition zone (DIZ) (Cladosporium herbarum [6]): 13.3 mm

Compound: CC(C)=CC[C@@H](OC(=O)C(C)C)C1=CC(=O)c2c(O)ccc(O)c2C1=O [ISOBUTYLSHIKONIN]
- inhibition at 5000 µM (Tobacco mosaic virus [3]): 49.5%
- inhibition (Tobacco mosaic virus [4]): 75.5%

Compound: CCC(=O)O[C@H](CC=C(C)C)C1=CC(=O)c2c(O)ccc(O)c2C1=O
- diameter of the inhibition zone (DIZ) (Cladosporium herbarum [1]): 11.3 mm
- diameter of the inhibition zone (DIZ) (Cladosporium herbarum [2]): 15.1 mm
- inhibition at 5000 µM (Tobacco mosaic virus [3]): 86.1%
- inhibition (Tobacco mosaic virus [4]): 99.9%
- diameter of the inhibition zone (DIZ) (Cladosporium herbarum [5]): 9.1 mm
- diameter of the inhibition zone (DIZ) (Cladosporium herbarum [6]): 15.6 mm

Compound: CC(C)=CCCC1=CC(=O)c2c(O)ccc(O)c2C1=O [DEOXYSHIKONIN]
- inhibition at 5000 µM (Tobacco mosaic virus [3]): 66.4%
- inhibition (Tobacco mosaic virus [4]): 87.3%

Compound: CCC(C)C(=O)O[C@H](CC=C(C)C)C1=CC(=O)c2c(O)ccc(O)c2C1=O (some centres undefined)
- inhibition (Tobacco mosaic virus [3]): inactive
- inhibition (Tobacco mosaic virus [4]): 86.1%

Compound: CC(C)=CC[C@@H](O)C1=CC(=O)c2c(O)ccc(O)c2C1=O [SHIKONIN]
- diameter of the inhibition zone (DIZ) (Cladosporium herbarum [1]): 13.4 mm
- diameter of the inhibition zone (DIZ) (Cladosporium herbarum [2]): 15.9 mm
- inhibition (Tobacco mosaic virus [3]): inactive
- Activity (Nicotiana tabacum): Toxic
- diameter of the inhibition zone (DIZ) (Cladosporium herbarum [5]): 9.9 mm
- diameter of the inhibition zone (DIZ) (Cladosporium herbarum [6]): 14.1 mm

Compound: CC(C)=CC[C@@H](OC(=O)C=C(C)C)C1=CC(=O)c2c(O)ccc(O)c2C1=O [DIMETHYLACRYLSHIKONIN]
- inhibition at 5000 µM (Tobacco mosaic virus [3]): 26%
- inhibition (Tobacco mosaic virus [4]): 70.2%

Compound: CC(C)=CC[C@@H](OC(=O)CC(C)(C)O)C1=CC(=O)c2c(O)ccc(O)c2C1=O [BETA-HYDROXYISOVALERYLSHIKONIN]
- diameter of the inhibition zone (DIZ) (Cladosporium herbarum [1]): 13.8 mm
- diameter of the inhibition zone (DIZ) (Cladosporium herbarum [2]): 17.6 mm
- inhibition at 5000 µM (Tobacco mosaic virus [3]): 44%
- Activity (Nicotiana tabacum): Toxic
- diameter of the inhibition zone (DIZ) (Cladosporium herbarum [5]): 9.1 mm
- diameter of the inhibition zone (DIZ) (Cladosporium herbarum [6]): 16 mm

Compound: CC(C)=CC[C@@H](OC(=O)CC(C)C)C1=CC(=O)c2c(O)ccc(O)c2C1=O
- inhibition at 5000 µM (Tobacco mosaic virus [3]): 46%
- inhibition (Tobacco mosaic virus [4]): 86.1%
